In PMC5742828, “α-Glucosidase and Protein Tyrosine Phosphatase 1B Inhibitory Activity of Plastoquinones from Marine Brown Alga Sargassum serratifolium” (Marine Drugs, 2017):

What was measured:
Type in all cases: biochemical
[1] = system: bovine serum albumin (BSA); assay: Inhibition of ONOO−-mediated albumin nitration (western blot, 3-nitrotyrosine antibody); settings: ONOO− 200 µM
Experimental: Figure 5 Dose-depended inhibition of ONOO^−-mediated albumin nitration by plastoquinones. Mixtures of test samples, bovine serum albumin (BSA), and ONOO^− were incubated with shaking at 37 °C for 30 min. The reactant was resolved in 10% polyacrylamide gel via electrophoresis. (a) sargahydroquinoic acid; (b) sargachromenol; and (c) sargaquinoic acid were used at the indicated concentrations; (d) Quantification of band intensity was calculated using CS Analyzer 3.00 (ATTO Corp., Tokyo, Japan). ^# p < 0.05 indicates a significant difference from the untreated normal group, * p < 0.05 indicate significant differences from the ONOO^− treated control.
The inhibition of ONOO^–-mediated nitrated albumin was evaluated using the method of Aulak et al.. Samples were added to bovine serum albumin (BSA) and mixed with ONOO^− (200 µM). After 10 min incubation (room temperature), the sample solution was added to Bio-Rad 2X Laemmli Sample buffer with mercaptoethanol and then boiled for 7 min. The reactant was resolved in 10% polyacrylamide gel via electrophoresis and transferred onto PVDF membranes. Pre-stained blue protein markers were used for molecular weight determination. Monoclonal anti-nitrotyrosine antibody (85 kDa) was used as a primary antibody and horseradish peroxidase-conjugated sheep anti-mouse secondary antibody was used as a secondary antibody. Antibody labeling was visualized using the Supersignal West Pico Chemiluminescent substrate (Pierce Chemical Co., Rockford, IL, USA). Densitometric analysis of the western blot results was determined using CS analyzer v3.00 (ATTO Corp.).

Yeast α-glucosidase = Yeast α-glucosidase (Saccharomyces cerevisiae, UniProt P53341); assay: Kinetic study against α-glucosidase (Dixon plots); settings: Dixon plot; pNPG 0.625, 1.25, 2.5 mM
Experimental: (§1) In an attempt to explain the mode of enzymatic inhibition of sargahydroquinoic acid, sargachromenol, and sargaquinoic acid, kinetic analysis was performed at different concentrations of the substrate (pNPP for PTP1B and pNPG for α-glucosidase) and inhibitor.
Figure 4 Dixon plots for α-glucosidase inhibition of compounds. (a) sargachromenol and (b) sargaquinoic acid were tested in the presence of different concentrations of substrate: 2.5 mM (●); 1.25 mM (ο); 0.625 mM (▼).
(§2) To determine the modes of enzyme inhibition, Dixon plots were used. The kinetic analyses were performed at different concentrations of substrate (0.625, 1.25, and 2.5 mM pNPG for α-glucosidase; 0.5, 1.0, and 2.0 mM pNPP for PTP1B) and various concentrations of plastoquinones (0, 0.4, 2.0, and 10.0 µM for PTP1B and 0, 25, 50 and 100 µM for α-glucosidase, respectively). Enzymatic inhibition of the test plastoquinones was evaluated by monitoring the effects of different concentrations of the substrate in the Dixon plots (single reciprocal plots). The enzymatic procedure consisted of the same aforementioned assay method. The inhibition constants (Ki) were determined via interpretation of the Dixon plots, where the value of the x-axis implies -Ki.

[2] = biological target: T1, PTP1B (human recombinant) (Homo sapiens, UniProt P18031); assay: PTP1B inhibitory assay (pNPP substrate); settings: log-dose inhibition curve; mean ± SEM of triplicate experiments
T1 construct: purchased Biomol International LP (Plymouth Meeting, PA, USA)
T1 sequence (P18031 1-435): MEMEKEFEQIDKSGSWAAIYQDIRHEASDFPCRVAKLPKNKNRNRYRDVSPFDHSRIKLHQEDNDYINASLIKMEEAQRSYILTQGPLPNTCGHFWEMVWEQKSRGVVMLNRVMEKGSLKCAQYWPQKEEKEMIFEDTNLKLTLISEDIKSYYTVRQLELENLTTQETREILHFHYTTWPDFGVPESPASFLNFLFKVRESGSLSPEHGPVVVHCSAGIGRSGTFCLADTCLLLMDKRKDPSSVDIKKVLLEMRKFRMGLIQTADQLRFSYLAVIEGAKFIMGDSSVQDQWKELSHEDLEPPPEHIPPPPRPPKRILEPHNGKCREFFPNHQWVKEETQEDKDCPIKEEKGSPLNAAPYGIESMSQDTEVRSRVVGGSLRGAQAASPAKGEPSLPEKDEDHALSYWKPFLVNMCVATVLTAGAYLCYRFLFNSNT
Experimental: Dithiothreitol (DTT) was purchased from Bio-Rad Laboratories (Hercules, CA, USA) and PTP1B (human recombinant) was purchased from Biomol International LP (Plymouth Meeting, PA, USA). ONOO^− was purchased from Molecular Probes Cayman (Ann Arbor, MI, USA). All other chemicals and solvents used were purchased from E. Merck, Fluka, and Sigma-Aldrich, unless otherwise stated. The PTP1B inhibitory activities of the plastoquinones were evaluated using pNPP [68]. Recombinant PTP1B enzyme (0.5 units diluted with a PTP1B reaction buffer) was added with or without sample. The plate was pre-incubated at 37 °C for 10 min and then substrate (2 mM pNPP) was added. Following incubation at 37 °C for 15 min, the enzymatic reaction was terminated by the addition of 10 M NaOH.

[3] = biological target: T1, PTP1B (human recombinant); assay: Kinetic study against PTP1B (Dixon plots); settings: Dixon plot; pNPP 0.5, 1.0, 2.0 mM
Experimental: as §1
Figure 3 Dixon plots for PTP1B inhibition of compounds. (a) sargahydroquinoic acid; (b) sargachromenol and (c) sargaquinoic acid were tested in the presence of different concentrations of substrate: 2.0 mM (●); 1.0 mM (ο); 0.5 mM (▼).
as §2

Yeast α-glucosidase, sequence (P53341 whole entry): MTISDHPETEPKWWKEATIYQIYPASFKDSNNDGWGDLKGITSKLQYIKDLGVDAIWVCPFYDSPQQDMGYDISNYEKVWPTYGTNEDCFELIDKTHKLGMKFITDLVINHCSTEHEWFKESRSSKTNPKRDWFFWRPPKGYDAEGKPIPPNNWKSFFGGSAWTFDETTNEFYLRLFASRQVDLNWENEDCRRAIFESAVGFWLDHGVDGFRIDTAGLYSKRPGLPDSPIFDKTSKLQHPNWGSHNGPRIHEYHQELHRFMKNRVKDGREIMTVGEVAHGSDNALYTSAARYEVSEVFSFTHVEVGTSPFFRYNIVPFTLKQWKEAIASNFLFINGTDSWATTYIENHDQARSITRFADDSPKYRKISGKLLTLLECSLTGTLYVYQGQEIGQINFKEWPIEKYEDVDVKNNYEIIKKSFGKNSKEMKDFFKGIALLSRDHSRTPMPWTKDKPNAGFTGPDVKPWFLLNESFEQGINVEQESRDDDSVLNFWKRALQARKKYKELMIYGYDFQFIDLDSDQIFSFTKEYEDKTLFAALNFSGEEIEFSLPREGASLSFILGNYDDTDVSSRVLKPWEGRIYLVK

| α-Glucosidase Inhibition Type (Yeast α-glucosidase) | IC50 [2] [µM] | Ki [3] [µM] | PTP1B Inhibition Type [3] | Compound | Inhibition of ONOO−-mediated albumin nitration ([1]; pretreatment at 2.5–10 μM) | Inhibition of ONOO−-mediated albumin nitration ([1]; pretreatment at 5–25 μM) |
| --- | --- | --- | --- | --- | --- | --- |
| Non-competitive | 11.8 ± 3.35 | 5.85 | Non-competitive | CC(C)=CCC/C(=C/CC/C(C)=C/CCC1(C)C=Cc2cc(O)cc(C)c2O1)C(=O)O (centres unmarked) [Sargachromenol, sargachromenol] | strong inhibition | – |
| – | 5.14 ± 0.07 | 2.21 | Mixed | CC(C)=CCC/C(=C/CC/C(C)=C/CC/C(C)=C/Cc1cc(O)cc(C)c1O)C(=O)O [Sargahydroquinoic acid, sargahydroquinoic acid] | – | markedly dose-dependent inhibition |
| Mixed | 14.15 ± 0.02 | 5.2 | Mixed | CC(C)=CCC/C(=C/CC/C(C)=C/CC/C(C)=C/CC1=CC(=O)C=C(C)C1=O)C(=O)O [Sargaquinoic acid, sargaquinoic acid] | – | markedly dose-dependent inhibition |
